Data published in patent publication US20260262643A1, “HERBICIDAL BENZOXAZINES” (FMC CORPORATION, priority 2022, published 2026).
Where two headings read alike, the source gives them in different places.

Assays:
blackgrass [1] = experiment: Test A preemergence; assay type: in vivo, Alopecurus myosuroides; conditions: Alopecurus myosuroides, pre-emergence, 240 h, read-out: Plant response rating, Blackgrass; for pest or weed control at 125 g/ha: 125 g ai/ha, visual injury after 10 days, 0 to 100 scale, 0 is no effect, 100 is complete control; for pest or weed control at 500 g/ha: 500 g ai/ha, 0 to 100 scale (0 no effect, 100 complete control), 10 days
Procedure, shortened: (§1)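 Greenhouse pot test, 10 days. Compound (non-phytotoxic solvent, surfactant) sprayed on soil at seeding or on seedlings at one- to two-leaf stage. Visual injury rated 0–100 against untreated plants.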

foxtail, giant = experiment: Test A preemergence; assay type: in vivo, Setaria faberi; conditions: Setaria faberi, pre-emergence, 240 h, read-out: Plant response rating, Foxtail, Giant; for pest or weed control at 125 g/ha: 125 g ai/ha, visual injury after 10 days, 0 to 100 scale, 0 is no effect, 100 is complete control; for pest or weed control at 500 g/ha: 500 g ai/ha, 0 to 100 scale (0 no effect, 100 complete control), 10 days
Procedure, shortened: as §1

goosegrass = experiment: Test A preemergence; assay type: in vivo, Eleusine indica; conditions: Eleusine indica, pre-emergence, 240 h, read-out: Plant response rating, Goosegrass; for pest or weed control at 125 g/ha: 125 g ai/ha, visual injury after 10 days, 0 to 100 scale, 0 is no effect, 100 is complete control; for pest or weed control at 500 g/ha: 500 g ai/ha, 0 to 100 scale (0 no effect, 100 complete control), 10 days
Procedure, shortened: as §1

kochia [2] = experiment: Test A preemergence; assay type: in vivo, Bassia scoparia; conditions: Bassia scoparia, pre-emergence, 240 h, read-out: Plant response rating, Kochia; for pest or weed control at 125 g/ha: 125 g ai/ha, visual injury after 10 days, 0 to 100 scale, 0 is no effect, 100 is complete control; for pest or weed control at 500 g/ha: 500 g ai/ha, 0 to 100 scale (0 no effect, 100 complete control), 10 days
Procedure, shortened: as §1

oat, wild = experiment: Test A preemergence; assay type: in vivo, Avena fatua; conditions: Avena fatua, pre-emergence, 240 h, read-out: Plant response rating, Oat, Wild; for pest or weed control at 125 g/ha: 125 g ai/ha, visual injury after 10 days, 0 to 100 scale, 0 is no effect, 100 is complete control; for pest or weed control at 500 g/ha: 500 g ai/ha, 0 to 100 scale (0 no effect, 100 complete control), 10 days
Procedure, shortened: as §1

ryegrass, Italian = experiment: Test A preemergence; assay type: in vivo, Lolium multiflorum; conditions: Lolium multiflorum, pre-emergence, 240 h, read-out: Plant response rating, Ryegrass, Italian; for pest or weed control at 125 g/ha: 125 g ai/ha, visual injury after 10 days, 0 to 100 scale, 0 is no effect, 100 is complete control; for pest or weed control at 500 g/ha: 500 g ai/ha, 0 to 100 scale (0 no effect, 100 complete control), 10 days
Procedure, shortened: as §1

blackgrass [3] = experiment: Test A postemergence; assay type: in vivo, Alopecurus myosuroides; conditions: Alopecurus myosuroides, post-emergence, 240 h; for pest or weed control at 125 g/ha: 125 g ai/ha; for pest or weed control at 500 g/ha: 500 g ai/ha
Procedure, shortened: as §1

corn = experiment: Test A postemergence; assay type: in vivo, Zea mays; conditions: Zea mays, post-emergence, 240 h, postemergence, 10 days, 0 to 100 scale (0 no effect, 100 complete control); for Corn plant response rating (crop injury, 0 = no effect, 100 = complete kill) at 500 g/ha: 500 g ai/ha
Procedure, shortened: as §1

kochia [4] = experiment: Test A postemergence; assay type: in vivo, Bassia scoparia; conditions: Bassia scoparia, post-emergence, 240 h, postemergence, 10 days, 0 to 100 scale (0 no effect, 100 complete control); for pest or weed control at 125 g/ha: 125 g ai/ha; for pest or weed control at 500 g/ha: 500 g ai/ha
Procedure, shortened: as §1

pigweed, palmer = experiment: Test A postemergence; assay type: in vivo, Amaranthus palmeri; conditions: Amaranthus palmeri, post-emergence, 240 h, postemergence, 10 days, 0 to 100 scale (0 no effect, 100 complete control); for pest or weed control at 500 g/ha: 500 g ai/ha, visual injury, read-out: Plant response rating, Pigweed, Palmer
Procedure, shortened: as §1

horseweed = experiment: Test A postemergence; assay type: in vivo, Erigeron canadensis; conditions: Erigeron canadensis, post-emergence, 240 h, postemergence, 10 days, 0 to 100 scale (0 no effect, 100 complete control); for pest or weed control at 125 g/ha: 125 g ai/ha; for pest or weed control at 500 g/ha: 500 g ai/ha
Procedure, shortened: as §1

barnyardgrass = experiment: Test B flooded paddy test; assay type: in vivo, Echinochloa crus-galli; conditions: Echinochloa crus-galli, 312 h, 250 g ai/ha, Flood, 13 days, 0 to 100 scale (0 no effect, 100 complete control); read-out: Plant response rating, Barnyardgrass
Procedure, shortened: (§2)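 Visual scores from 0 (no effect) to 100 (complete kill) were assigned 13 days after treatment by comparison with controls. Seedlings had been treated at two leaves by adding compound to floodwater standing 3 cm deep, kept at that level in the greenhouse.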

ducksalad = experiment: Test B flooded paddy test; assay type: in vivo, Heteranthera limosa; conditions: Heteranthera limosa, 312 h, 250 g ai/ha, Flood, 13 days, 0 to 100 scale (0 no effect, 100 complete control); read-out: Plant response rating, Ducksalad
Procedure, shortened: as §2

rice = experiment: Test B flooded paddy test; assay type: in vivo, Oryza sativa; conditions: Oryza sativa, 312 h; 250 g ai/ha, Flood, 13 days, 0 to 100 scale (0 no effect, 100 complete control); read-out: Plant response rating, Rice
Procedure, shortened: as §2

[5] = postemergence, 10 days, visual injury, 0 to 100 scale (0 no effect, 100 complete control), read-out: Plant response rating, Blackgrass
[6] = visual injury, read-out: Plant response rating, Kochia
[7] = visual injury, read-out: Plant response rating, Horseweed

| Compound | pest or weed control at 125 g/ha (blackgrass [1]) [%] | pest or weed control at 500 g/ha (blackgrass [1]) [%] | pest or weed control at 125 g/ha (foxtail, giant) [%] | pest or weed control at 500 g/ha (foxtail, giant) [%] | pest or weed control at 125 g/ha (goosegrass) [%] | pest or weed control at 500 g/ha (goosegrass) [%] | pest or weed control at 125 g/ha (kochia [2]) [%] | pest or weed control at 500 g/ha (kochia [2]) [%] | pest or weed control at 125 g/ha (oat, wild) [%] | pest or weed control at 500 g/ha (oat, wild) [%] | pest or weed control at 125 g/ha (ryegrass, Italian) [%] | pest or weed control at 500 g/ha (ryegrass, Italian) [%] | Corn plant response rating (crop injury, 0 = no effect, 100 = complete kill) at 500 g/ha (corn; visual injury) [%] | pest or weed control at 500 g/ha (kochia [4]; [6]) [%] | pest or weed control at 500 g/ha (pigweed, palmer) [%] | pest or weed control at 500 g/ha (horseweed; [7]) [%] | pest or weed control at 250 g/ha (barnyardgrass) [%] | pest or weed control at 250 g/ha (ducksalad) [%] | plant injury at 250 g/ha (rice) [%] | other results |
| --- | --- | --- | --- | --- | --- | --- | --- | --- | --- | --- | --- | --- | --- | --- | --- | --- | --- | --- | --- | --- |
| COc1ccc(-n2cnc(C(C)C)n2)cc1C(=O)N1C[C@H](C)Oc2c(Cl)cccc21 [Compound 84, [(2S)-8-chloro-2-methyl-2,3-dihydro-1,4-benzoxazin-4-yl]-[5-(3-isopropyl-1,2,4-triazol-1-yl)-2-methoxy-phenyl]methanone] | 80 | 80 | 100 | 100 | 100 | 100 | 80 | 100 | 90 | 90 | 100 | 100 | 90 | 90 | 100 | 50 | 65 | 60 | 0 | pest or weed control at 125 g/ha (blackgrass [3]; postemergence, 10 days, 0 to 100 scale (0 no effect, 100 complete control), read-out: Blackgrass plant response rating): 70%; pest or weed control at 500 g/ha (blackgrass [3]; [5]): 70%; plant injury at 125 g/ha (corn; 125 g ai/ha, read-out: Corn plant response rating): 70%; pest or weed control at 125 g/ha (kochia [4]; read-out: Kochia plant response rating): 90%; pest or weed control at 125 g/ha (pigweed, palmer; 125 g ai/ha, read-out: Pigweed, Palmer plant response rating): 90%; pest or weed control at 125 g/ha (horseweed; read-out: Horseweed plant response rating): 40% |
| Cc1ncn(-c2ccc(C)c(C(=O)N3C[C@H](C)Oc4c(Cl)cccc43)c2)n1 (single isomer, unassigned) [Compound 74] | 70 | 90 | 100 | 100 | 100 | 100 | 40 | 100 | 60 | 90 | 100 | 100 | 90 | 90 | 70 | 0 | 10 | 60 | 20 | pest or weed control at 125 g/ha (blackgrass [3]; [5]): 70%; pest or weed control at 500 g/ha (blackgrass [3]; Postemergence, 0 to 100 scale, read-out: Plant response rating, Blackgrass): 90%; Corn plant response rating (crop injury, 0 = no effect, 100 = complete kill) at 125 g/ha (corn; 125 g ai/ha, visual injury): 60%; pest or weed control at 125 g/ha (kochia [4]; [6]): 70%; pest or weed control at 125 g/ha (horseweed; [7]): 0% |
